Measurements taken from US10953010B2 (HAMRA INVEST AB, priority 2016, dated 2021).
Where two headings read alike, the source gives them in different places.

Tests used:
[1] = test system: patients with acute ischemic stroke treated with intravenous thrombolysis; assay: Neurological outcome (NIHSS score); type: in vivo, human; conditions: for mean lowering of the NIHSS score, estimate in brackets / mean lowering (improvement) of the NIHSS score: after adjustment for thrombectomy
Description: (§1) Occurrence and severity of hemorrhagic transformation, intracerebral hemorrhage and cerebral edema on post-treatment computer tomography (CT) or magnetic resonance imaging (MR) were among secondary outcomes. Others were neurological outcome at 2 hours, 24 hours and 7 days after initiation of intravenous thrombolysis, functional outcome at 3 months and infarct volume at 7 days. Infarct volume evaluation will be addressed in a following publication.
(§2) Clinical assessments, including determination of the NIHSS score were performed before intravenous thrombolysis and start of study treatment (baseline), 2 hours (day 0), day 1 and then daily until day 7. A final NIHSS score was included in the 3 months follow up examination. Assessment of any adverse event was done daily from day 0 to day 7, and finally at 3 months. CT scan was performed at baseline, 24 hours (accepted interval 22-36 hours) and, optionally, at 7 days, MRI at 24 h (accepted interval as for CT) and at 7 days. Definitions of hemorrhagic transformations, parenchymatous hemorrhages and edema are described in an earlier publication R1 and also listed in Table 1. At three months functional status was evaluated using the modified Rankin Scale (mRS) score. The three months follow up examinations were performed blindly at a different hospital than the one responsible for the acute treatment.
When looking at separate time points, linear regression with robust standard errors was used, while adjusting for thrombectomy. […] The choice of using AR1 correlation was made by comparing the Akaike Information Criterion to a model without AR1 correlation. […] The association between treatment groups and functional independence was analyzed using odds ratios. The statistical software Stata v.13 was used.

[2] = test system: patients with acute ischemic stroke treated with intravenous thrombolysis; assay: Hemorrhagic transformations and parenchymatous hemorrhages on post-treatment CT or MR; type: in vivo, human
Description: as §1

[3] = test system: patients with acute ischemic stroke treated with intravenous thrombolysis; assay: Cerebral edema on post-treatment CT or MR; type: in vivo, human
Description: as §1

[4] = oral
clinical = conditions: human, plasma, po
[5] = test system: patients with acute ischemic stroke treated with intravenous thrombolysis; conditions: Imatinib treated patients
Description: as §1
as §2, with “Definitions of hemorrhagic transformations, parenchymatous hemorrhages and edema are described in an earlier publication R1 and also listed in Table 1.” left out, “The three months follow up examinations were performed blindly at a different hospital than the one responsible for the acute treatment.” left out
When looking at separate time points, linear regression with robust standard errors was used, while adjusting for thrombectomy. […] The association between treatment groups and functional independence was analyzed using odds ratios. […]

Bcr-Abl tyrosine kinase = conditions: more potent than Imatinib; cited from earlier work

Compound: Cc1ccc(NC(=O)c2ccc(CN3CCN(C)CC3)cc2)cc1Nc1nccc(-c2cccnc2)n1 [Imatinib]
- improvement on the NIHSS per 100 mg Imatinib ([1]; after adjustment for the effect of thrombectomy): 0.6 points
- lowering of the adjusted mean NIHSS score compared to control, estimate in brackets ([1]; high dose, 3 months): −4.81
- lowering of the adjusted mean NIHSS score compared to control ([1]; high dose, 3 months, p<0.019): 5 points
- lowering of the adjusted mean NIHSS score compared to control, estimate in brackets ([1]; high dose, 7 days): −5.68
- lowering of the adjusted mean NIHSS score compared to control ([1]; high dose, 7 days, p<0.019): 6 points
- mean lowering of the NIHSS score, estimate in brackets ([1]; high dose): −4.94
- mean lowering (improvement) of the NIHSS score ([1]; high dose, p<0.012): 5 points
- lowering of the adjusted mean NIHSS score compared to control ([1]; high dose, day 1, p<0.018): 5 points
- mean lowering of the NIHSS score, estimate in brackets ([1]; low dose): −2.30
- mean lowering (improvement) of the NIHSS score ([1]; low dose, p<0.259): 2 points
- mean lowering of the NIHSS score, estimate in brackets ([1]; medium dose): −3.05
- mean lowering (improvement) of the NIHSS score ([1]; medium dose, p<0.106): 3 points
- neurological outcome ([1]; treatment with Imatinib vs control): significantly improved neurological outcome
- number of hemorrhagic transformations ([2]; high dose): 3
- parenchymatous hemorrhages, PH1 type ([2]; high dose): one
- remote parenchymatous hemorrhages of the milder grade (PHr1) ([2]; high dose group): 3
- hemorrhages reported ([2]; initiation of Imatinib within 5 hours after stroke onset, high dose group, of 5 treated): no hemorrhages
- hemorrhages reported ([2]; initiation of Imatinib within 5 hours after stroke onset, low dose group, of 8 treated): 4
- hemorrhages reported ([2]; initiation of Imatinib within 5 hours after stroke onset, medium dose, of to treated): 5
- number of hemorrhagic transformations ([2]; low dose group): 6
- remote parenchymatous hemorrhages of the milder grade (PHr1) ([2]; low dose group): one
- number of hemorrhagic transformations ([2]; medium dose): 7
- parenchymatous hemorrhages, PH2 ([2]; medium dose): one
- remote parenchymatous hemorrhages of the milder grade (PHr1) ([2]; medium dose group): one
- hemorrhages reported ([2]; reperfusion treatment completed within 4.5 hours, high dose group, of 7 treated): no hemorrhages
- hemorrhages reported ([2]; reperfusion treatment completed within 4.5 hours, low dose, of 9): 5
- hemorrhages reported ([2]; reperfusion treatment completed within 4.5 hours, medium dose, of 11 treated): 6
- number of cerebral edema (CED 1-3) ([3]; high dose): to
- patients with the mildest form of edema, CED 1 ([3]; high dose): to
- patients with CED 1 at follow up ([3]; initiation of Imatinib within 5 hours after stroke onset, high dose group, of 5 patients): 2
- patients with CED 1 or 2 ([3]; initiation of Imatinib within 5 hours after stroke onset, low dose, of 8 patients): 4
- patients with CED 1 or 2 ([3]; initiation of Imatinib within 5 hours after stroke onset, medium dose, of to patients): 5
- number of cerebral edema (CED 1-3) ([3]; low dose): 6
- patients with the mildest form of edema, CED 1 ([3]; low dose): 4
- moderately severe edema (CED-2) ([3]; low dose group): Two
- moderately severe edema (CED-2) ([3]; medium dose): 1
- number of cerebral edema (CED 1-3) ([3]; medium dose): 8
- patients with the mildest form of edema, CED 1 ([3]; medium dose): 7
- patients with CED 1 ([3]; reperfusion treatment completed within 4.5 hours, high dose group, of 7 patients): 4
- patients with CED 1 or 2 ([3]; reperfusion treatment completed within 4.5 hours, low dose, of nine): 4
- patients with CED 1 or 2 ([3]; reperfusion treatment completed within 4.5 hours, medium dose, of 11): 6
- mean plasma concentration of Imatinib, Day 0-Day 6 ([4]; 400 mg daily): 530 ng/mL
- mean plasma concentration of Imatinib, Day 0-Day 6 ([4]; 600 mg daily): 1094 ng/mL
- mean plasma concentration of Imatinib, Day 0-Day 6 ([4]; 800 mg daily): 2054 ng/mL
- concentration at 3 h (clinical; 400 mg): 996 ng/mL
- concentration at 3 h (clinical; 600 mg): 1570 ng/mL
- concentration at 3 h (clinical; 800 mg): 1730 ng/mL
- severe disability (5 points on mRS) or death (6 points) [5]: did not occur

Compound: Cc1cn(-c2cc(NC(=O)c3ccc(C)c(Nc4nccc(-c5cccnc5)n4)c3)cc(C(F)(F)F)c2)cn1 [Nilotinib]
- potency relative to Imatinib in inhibiting Bcr-Abl tyrosine kinase activity (Bcr-Abl tyrosine kinase): 10-30 fold
